System: SARS-COV-2 pseudoviral particle (pCoV-VP)
Assay type: cell-based

| SMILES | decrease of cytopathic effects of pCoV-VPs (MTS assay) |
| --- | --- |
| CCN(CC)Cc1cc(Nc2ccnc3cc(Cl)ccc23)ccc1O [amodiaquine] | approximately 21.4% |
| CCN(CCO)CCCC(C)Nc1ccnc2cc(Cl)ccc12 (stereo not drawn) [hydroxychloroquine] | ~11.3% |
| CCC(CC)COC(=O)[C@H](C)N[P@](=O)(OC[C@H]1O[C@@](C#N)(c2ccc3c(N)ncnn23)[C@H](O)[C@@H]1O)Oc1ccccc1 [remdesivir] | ~30.0% |
